Experimental data published in patent US8486961B2, “Pyrrolo[4,3,2-de]quinolin-8-amine compounds and methods of their preparation and use” (Wyeth LLC, priority 2008, dated 2013).
Read-outs that look alike come from different tables or passages of the source.

How the values were obtained:
MDA468 cells = assay: In vitro cell growth assay (MTS), MDA468; assay type: cell-based, human
Protocol: (§1) Cells of human tumor lines LNCap and MDA468 were plated in 96-well culture plates at approximately 3000 cells per well. One day following plating, various doses of mTOR inhibitors were added to cells. Three days after drug treatment, viable cell densities were determined by metabolic conversion (by viable cells) of the dye MTS, a well-established cell proliferation assay. The assays were performed using an assay kit purchased from Promega Corp. (Madison, Wis.) following the protocol supplied with the kit. The MTS assay results were read in a 96-well plate reader by measuring absorbance at 490 nm. The effect of each treatment was calculated as percent of control growth relative to the vehicle-treated cells grown in the same culture plate. The drug concentration that conferred 50% inhibition of growth was determined as IC50 (μM).

mTOR = target: T1, mTOR (Homo sapiens, UniProt P42345); assay: mTOR kinase assay (DELFIA, purified enzyme); assay type: biochemical; conditions: purified FLAG-TOR, 100 μM ATP, His6-S6K substrate; * = compounds 4 and 5 screened as a mixture
T1 construct: FLAG
Protocol: The routine human TOR assays with purified enzyme were performed in 96-well plates by DELFIA format as follows. Enzymes were first diluted in kinase assay buffer (10 mM Hepes (pH 7.4), 50 mM NaCl, 50 mM β-glycerophosphate, 10 mM MnCl2, 0.5 mM DTT, 0.25 μM microcystin LR, and 100 μg/mL BSA). To each well, 12 μL of the diluted enzyme were mixed briefly with 0.5 μL test inhibitor or control vehicle dimethylsulfoxide (DMSO). The kinase reaction was initiated by adding 12.5 μL kinase assay buffer containing ATP and His6-S6K to give a final reaction volume of 25 μL containing 800 ng/mL FLAG-TOR, 100 μM ATP and 1.25 μM His6-S6K. The reaction plate was incubated for 2 hours (linear at 1-6 hours) at room temperature with gentle shaking and then terminated by adding 25 μL Stop buffer (20 mM Hepes (pH 7.4), 20 mM EDTA, 20 mM EGTA). The DELFIA detection of the phosphorylated (Thr-389) His6-S6K was performed at room temperature using a monoclonal anti-P(T389)-p70S6K antibody (1A5, Cell Signaling) labeled with Europium-N1-ITC (Eu) (10.4 Eu per antibody, PerkinElmer). The DELFIA Assay buffer and Enhancement solution were purchased from PerkinElmer. 45 μL of the terminated kinase reaction mixture was transferred to a MaxiSorp plate (Nunc) containing 55 μL PBS. The His6-S6K was allowed to attach for 2 hours after which the wells were aspirated and washed once with PBS. 100 μL of DELFIA Assay buffer with 40 ng/mL Eu-P(T389)—S6K antibody was added. The antibody binding was continued for 1 hour with gentle agitation. The wells were then aspirated and washed 4 times with PBS containing 0.05% Tween-20 (PBST). 100 μL of DELFIA Enhancement solution was added to each well and the plates were read in a PerkinElmer Victor model plate reader. Data obtained were used to calculate enzymatic activity and enzyme inhibition by potential inhibitors. mTOR IC50 data (reported in μM) is provided in Table 1.

LNCap cells = assay: In vitro cell growth assay (MTS), LNCap; assay type: cell-based, human
Protocol: as §1

[1] = 72 h, MDA468 human tumor line, 3 days treatment, MTS, * = compounds 4 and 5 screened as a mixture, read-out: MDA 468 IC50
[2] = 72 h, LNCap human tumor line, 3 days treatment, MTS, * = compounds 4 and 5 screened as a mixture
[3] = Homo sapiens, LNCap cell growth

CO/C=C/C(=O)c1cc2c3c(c(N)cc(NC(=O)CC(C)C)c3n1)N=C2 [Compound 4, (E)-N-(8-amino-4-(3-methoxyacryloyl)pyrrolo[4,3,2-de]quinolin-6-yl)-3-methylbutanamide]
IC50 (MDA468 cells; [1]): 0.7 µM
IC50 (MDA468 cells; Homo sapiens, Example 8): 0.05 to 0.8 µM
IC50 (mTOR): 0.0018 µM
IC50 (LNCap cells; [2]): 0.23 µM
IC50 (LNCap cells; [3]): 0.02 to 0.3 µM

CCC(=O)Nc1cc(N)c2c3c(cc(C(=O)/C=C/OC)nc13)C=N2 [Compound 1, (E)-N-(8-amino-4-(3-methoxyacryloyl)pyrrolo[4,3,2-de]quinolin-6-yl)-propionamide]
IC50 (MDA468 cells; [1]): 0.085 µM
IC50 (MDA468 cells; Homo sapiens, Example 8): 0.05 to 0.8 µM
IC50 (mTOR): 0.0015 µM
IC50 (LNCap cells; [2]): 0.048 µM
IC50 (LNCap cells; [3]): 0.02 to 0.3 µM

CCC(C)C(=O)Nc1cc(N)c2c3c(cc(C(=O)/C=C/OC)nc13)C=N2 (stereo not drawn) [Compound 5, (E)-N-(8-amino-4-(3-methoxyacryloyl)pyrrolo[4,3,2-de]quinolin-6-yl)-2-methylbutanamide]
IC50 (MDA468 cells; [1]): 0.7 µM
IC50 (mTOR): 0.0018 µM
IC50 (LNCap cells; [2]): 0.23 µM

CO/C=C/C(=O)c1cc2c3c(c(N)cc(NC(=O)C(C)C)c3n1)N=C2 [Compound 2, (E)-N-(8-amino-4-(3-methoxyacryloyl)pyrrolo[4,3,2-de]quinolin-6-yl)isobutyramide]
IC50 (MDA468 cells; [1]): 0.058 µM
IC50 (MDA468 cells; Homo sapiens, Example 8): 0.05 to 0.8 µM
IC50 (mTOR): 0.0008 µM
IC50 (LNCap cells; [2]): 0.022 µM
IC50 (LNCap cells; [3]): 0.02 to 0.3 µM

CCC(C)C(=O)Nc1cc(N)c2c3c(cc(C(=O)CCO)nc13)C=N2 (stereo not drawn) [Compound 9, N-(8-amino-4-(3-hydroxypropanoyl)pyrrolo[4,3,2-de]quinolin-6-yl)-2-methylbutanamide]
IC50 (MDA468 cells; [1]): 7.6 µM
IC50 (mTOR): 3.2 µM
IC50 (LNCap cells; [2]): 10 µM

CC(C)CC(=O)Nc1cc(N)c2c3c(cc(C(=O)CCO)nc13)C=N2 [Compound 8, N-(8-amino-4-(3-hydroxypropanoyl)pyrrolo[4,3,2-de]quinolin-6-yl)-3-methylbutanamide]
IC50 (MDA468 cells; [1]): 3.5 µM
IC50 (mTOR): 1.5 µM
IC50 (LNCap cells; [2]): 2.9 µM

CCCC(=O)Nc1cc(N)c2c3c(cc(C(=O)CCO)nc13)C=N2 [Compound 3, N-(8-amino-4-(3-hydroxypropanoyl)pyrrolo[4,3,2-de]quinolin-6-yl)butyramide]
IC50 (MDA468 cells; [1]): > 12 µM
IC50 (mTOR): > 4 µM
IC50 (LNCap cells; [2]): > 12 µM

CC(C)C(=O)Nc1cc(N)c2c3c(cc(C(=O)CCO)nc13)C=N2 [Compound 6, N-(8-amino-4-(3-hydroxypropanoyl)pyrrolo[4,3,2-de]quinolin-6-yl)isobutyramide]
IC50 (MDA468 cells; [1]): 1.2 µM
IC50 (mTOR): > 4 µM
IC50 (LNCap cells; [2]): 6.5 µM

CCC(=O)Nc1cc(N)c2c3c(cc(C(=O)CCO)nc13)C=N2 [Compound 7, N-(8-amino-4-(3-hydroxypropanoyl)pyrrolo[4,3,2-de]quinolin-6-yl)propionamide]
IC50 (MDA468 cells; [1]): 0.4 µM
IC50 (mTOR): > 4 µM
IC50 (LNCap cells; [2]): 5 µM
